Here are results for four molecules from PMC11436104 (Toxins, 2024).

In general, IC50 refers to the concentration needed to halve the response being measured.

Where “and” joins values, the source holds several entries; their conditions need not be identical. Equal entries are not always repeated. Where two headings read alike, the source gives them in different places. *1 amine or outer side, *2 acyl side, *3 side chain or, on linkers, in order; H or OH if unused. Where a SMILES comes first, the peptide text is derived from it. Bridges are numbered along the chain shown (N, C = ends). [ ]: non-standard residue; d: D form. Adda = CO[C@@H](Cc1ccccc1)[C@@H](C)/C=C(C)/C=C/[C@H](N[*:1])[C@H](C)C(=O)[*:2]; dAsp(3S-Me) = C[C@H](C(=O)[*:3])[C@@H](N[*:1])C(=O)[*:2]; d(γGlu) = O=C(O)[C@@H](CCC(=O)[*:2])N[*:1]; hTyr = N[C@@H](CCc1ccc(O)cc1)C(=O)O; NMeA = CN[C@@H](C)C(=O)O; NMeDha = C=C(NC)C(=O)O; CO = O=C([*:1])[*:2]

Assay [1] has as its system NHAs (normal human astrocytes). As to the kind of experiment: MTT metabolic activity / cell viability. Type of assay: cell-based. How it is done:
Normal human astrocytes (NHAs; Lonza, Walkersville, MD, USA) were grown and maintained in monolayer cultures in Dulbecco’s modified Eagle’s medium (DMEM; Sigma) supplemented with 10% fetal bovine serum (Euroclone, Pero, MI, Italy), 1% penicillin/streptomycin (Euroclone), 2 mM L-glutamine (Euroclone), and 20 mM Hepes (Invitrogen, Carlsbad, CA, USA). The U87-MG human glioblastoma cells (U87-MG cells; American Type Culture Collection, Manassas, VA, USA) were grown and maintained in monolayer cultures in DMEM supplemented with 10% fetal bovine serum, 1% penicillin/streptomycin, 4 mM L-glutamine, and 1% non-essential amino acids (Sigma).
Cell viability was determined using the 3-(4,5-dimethylthiazolyl-2)-2,5-diphenyltetrazolium bromide (MTT) assay, as according to Mosmann. This assay measures the conversion of MTT to its insoluble formazan by the dehydrogenase enzymes of the intact mitochondria of living cells. […]; Nunclon; Nunc, Naperville, IL, USA) and incubated for 16 h at 37 °C for attachment. The cell-growth medium was then replaced by fresh medium containing 0, 0.1, 1, and 10 µM of each CCP and incubated for an additional 24 h. These experiments were performed without using dimethylsulphoxide to best retain the original permeability of the cell membranes. Each experiment included the negative control of cell-growth medium with no additions. Following incubation (CO2 incubator), 20 μL 5 mg/mL MTT was added to each well. The plates were incubated for another 3 h. […] The amount of formazan, which is proportional to the metabolic activity of cells, was quantified spectrophotometrically at 570 nm (reference filter wavelength, 690 nm) using a microplate reader (Synergy MX; BioTek, Winooski, VT, USA). The metabolic activity of the cells was determined by comparing the optical densities of the CCP-treated cells with those of the negative control. Five replicates per concentration and three independent experiments were performed. Student’s t-tests were used to analyze the differences between the treated and control cells using Prism 5 software (GraphPad, Inc., La Jolla, CA, USA), where p < 0.05 was considered to be statistically significant.

A further assay relates to ACTB. As to the kind of experiment: Gene expression by quantitative real-time PCR in U-87MG cells. The class given is cell-based, human. The note with it: 24 h, relative to non-treated control. How it is done: (§1) Cells were seeded onto 6-well plates, left to attach for 16 h, and treated with each non-hCCP separately (0.1–10 µM) and the hepatotoxic MC-LR (0.01–1 µM) for 24 h at 37 °C in the CO2 incubator. The total RNA from the cells (0.5–1.0 × 10^6 cells) was isolated using the TRIzol reagent (Invitrogen), and the cDNA was synthesized using 1 μg total RNA with cDNA high-capacity archive kits (Applied Biosystems, Foster City, CA, USA), according to the manufacturer’s protocol.
(§2) The expression levels of TUBA1A, ACTB, NES, and GFAP were quantified using quantitative real-time PCR (ABI 7900 HT Sequence Detection System; Applied Biosystems). TaqMan Universal PCR Master Mix and the following TaqMan Gene Expression Assays were used: TUBA1A: tubulin, alpha 1a, Hs00362387_m1; ACTB: actin, beta, Hs99999903_m1; NES, nestin, Hs00707120_s1; and GFAP, glial fibrillary acidic protein, and Hs00157674_m1 (all from Applied Biosystems). Amplification of a glyceraldehyde 3-phosphate dehydrogenase probe GAPDH (Human Endogenous Controls, Cat. # 4310884E; Applied Biosystems) was performed as an internal control. The conditions for the quantitative real-time PCR were as follows: 50 °C for 2 min, 95 °C for 10 min, 40 cycles of 95 °C for 15 s, and 60 °C for 1 min.
(§3) The data obtained from the TaqMan Gene Expression Assays were analyzed using the ΔΔCt algorithm. Two replicates per concentration and three independent experiments were performed. The statistical significance between the controls and the treated groups was determined using two-tailed Student’s t-tests, where p < 0.05 was statistically significant. In addition, the relative expression was normalized to the housekeeping gene GAPDH (relative quantification), with at least three sample concentrations used for each gene in both untreated cell lines.

Another assay concerns GFAP. The description is as above. The class given is cell-based, human. The conditions noted are these: 24 h, relative to non-treated control. Here is the method:
as §1, §2, §3

Another assay relates to NES. Described as above. Type of assay: cell-based, human. How it is done:
as §1, §2, §3

In the next assay the test system is TUBA1A. Described as above. Type of assay: cell-based, human. How it is done:
as §1, §2, §3

Assay [2] deals with T1, Ser/Thr protein phosphatase type-1 (PP1; α isoform catalytic subunit) (Oryctolagus cuniculus, UniProt P62139).
T1 construct: purchased Sigma 539493; host or cells: Escherichia coli
As to the kind of experiment: Colorimetric protein phosphatase inhibition assay, p-nitrophenyl phosphate substrate. The class given is biochemical, rabbit. How it is done: The inhibition of Ser/Thr protein phosphatases by the CCPs was measured using the colorimetric inhibition assay described by An and Carmichael and Gkelis et al., with some modifications. […] Enzymes, PP1 and PP2A, were diluted in reaction buffer #1 (50 mM Tris-HCl, 1.0 g/L bovine serum albumin, 1.0 mM MnCl2, 2.0 mM dithiothreitol, pH 7.4), and p-nitrophenyl phosphate was prepared in substrate buffer (0.1 M glycine, pH 10.4, 1 mM MgCl2, 1 mM ZnCl2). The assay was performed by the addition of each CCP (as a potential inhibitor; final concentrations, 0.1, 1, 10, and 100 µM) to the enzyme solution (i.e., PP1 and PP2A; final concentrations, 1 U/well and 0.01 U/well, respectively, where 1 U hydrolyzes 1 nmole of substrate per minute at pH 7.4 at 30 °C). After a few seconds of gentle shaking, the microplate was kept at room temperature for 5 min, followed by the addition of reaction buffer #2 (50 mM Tris-HCl, 0.5 g/L bovine serum albumin, 0.2 mM MnCl2, 20 mM MgCl2, and pH 8.1) for PP1, or reaction buffer #1 for PP2A. The reactions were started by the addition of p-nitrophenyl phosphate (final concentrations, 15 mM for PP1 and 10 mM for PP2A) and were carried out for 120 min at 37 °C. The hydrolysis of p-nitrophenyl phosphate to […] was recorded at 405 nm using a microplate reader (Tecan, Austria). The inhibition percentages (X) were calculated from the absorbances of the samples after incubation for 30 min, as according to Equation (1):X (%) = (APP − AS)/APP × 100,(1) where APP is the absorbance of the control sample (i.e., enzyme only), and AS is the absorbance of the test sample (i.e., enzyme with potential inhibitor). […] All measurements were repeated a minimum of three independent times, with five technical replicates per experiment. IC50 values are expressed as means ± SD.

Setting [3] is: U-87MG, 0.1 µM CCP, 24 h, relative to non-treated control.
Where [4] appears, read: U-87MG, 1 µM CCP, 24 h, relative to non-treated control.
The mark [5] stands for this setting: U-87MG, 10 µM CCP, 24 h, relative to non-treated control.
Where [6] appears, read: means ± SD, p-nitrophenyl phosphate 15 mM.

T1 sequence (P62139 whole entry, canonical isoform): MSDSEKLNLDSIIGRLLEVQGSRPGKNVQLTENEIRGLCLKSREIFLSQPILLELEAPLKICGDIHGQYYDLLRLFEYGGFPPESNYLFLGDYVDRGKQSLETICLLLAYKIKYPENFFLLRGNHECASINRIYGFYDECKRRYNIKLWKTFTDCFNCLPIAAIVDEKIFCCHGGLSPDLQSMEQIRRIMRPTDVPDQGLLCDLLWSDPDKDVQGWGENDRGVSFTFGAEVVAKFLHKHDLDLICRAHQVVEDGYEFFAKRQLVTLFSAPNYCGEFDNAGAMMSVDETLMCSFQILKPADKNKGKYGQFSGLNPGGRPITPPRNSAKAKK

In the case of `CC[C@H](C)[C@@H]1NC(=O)[C@H](Cc2ccc(OC)cc2)N(C)C(=O)[C@H]([C@@H](C)O)N2C(=O)[C@H](CC[C@H]2O)NC(=O)[C@H](CC(C)C)NC(=O)[C@@H](NC(=O)[C@H](CCC(N)=O)NC(=O)[C@H](CCc2ccc(O)cc2)NC(=O)[C@@H](O)CO)[C@@H](C)OC1=O`, the “metabolic activity vs control” value in assay [1] (NHAs, up to 10 µM, 24 h) is recorded as “no significant changes from the control”. Also, the entries for the “Changes in gene expression of ACTB” value in the assay on ACTB (0.1 µM CCP), in the assay on ACTB (1 µM CCP) and in the assay on ACTB (10 µM CCP) were 1.015 ± 0.057, 1.051 ± 0.185 and 1.147 ± 0.105, respectively. For the same molecule, the “Changes in gene expression of GFAP” value in the assay on GFAP (0.1 µM CCP) was found to be 1.107 ± 0.214; in the assay with GFAP (1 µM CCP), 1.283 ± 0.185; in the assay with GFAP (10 µM CCP), 1.016 ± 0.046. Besides, the “Changes in gene expression of NES” value with NES (setting [3]) turned out to be 1.003 ± 0.164; in the assay with NES (setting [4]), 1.069 ± 0.105; in the assay with NES (setting [5]) it was 1.240 ± 0.041. Further, the figures for the “Changes in gene expression of TUBA1A” value in the assay on TUBA1A (setting [3]), with TUBA1A (setting [4]) and with TUBA1A (setting [5]) were 1.124 ± 0.050, 1.094 ± 0.172 and 1.171 ± 0.049, respectively. Moreover, the IC50 in assay [2] (setting [6]) worked out at 132 ± 87.5 µM.
For the molecule `C=C1C(=O)N[C@H](C)C(=O)N[C@@H](CC(C)C)C(=O)N[C@@H](C(=O)O)[C@H](C)C(=O)N[C@@H](CCCNC(=N)N)C(=O)N[C@@H](/C=C/C(C)=C/[C@H](C)[C@H](Cc2ccccc2)OC)[C@H](C)C(=O)N[C@@H](C(=O)O)CCC(=O)N1C` [MC-LR, Microcystin-LR, reference compound] (R[Adda][d(γGlu)][NMeDha][dA]L[dAsp(3S-Me)]-OH; lactam N-7), the “metabolic activity vs control” value in assay [1] is given as “significantly decreased”. Moreover, the cytotoxicity in assay [1] (10 µM, read-out: cell viability lower than the control) was roughly 20%. Further, the “Changes in gene expression of NES” value with NES was 1.030 ± 0.105 and 0.877 ± 0.148. For the same molecule, in the assay on TUBA1A, the “Changes in gene expression of TUBA1A” value is 1.031 ± 0.064 and 0.983 ± 0.099. The same molecule gave an IC50 in assay [2] of 0.005 ± 0.0016 µM.
As to `CC(C)[C@@H]1NC(=O)[C@H](NC(=O)N[C@@H](CCCNC(=N)N)C(=O)O)CCCCNC(=O)[C@H](Cc2ccccc2)NC(=O)[C@H](C)N(C)C(=O)[C@H](CCc2ccc(O)cc2)NC1=O` [anabaenopeptin B] ({Arg-CO}-[dK]V[hTyr][NMeA]F; lactam 1-C), the “metabolic activity vs control” value in assay [1] (NHAs, up to 10 µM, 24 h) was “no significant changes from the control”. Further, the “Changes in gene expression of ACTB” value with ACTB (0.1 µM CCP) worked out at 0.998 ± 0.070; in the assay on ACTB (1 µM CCP) it was 1.039 ± 0.070; in the assay on ACTB (10 µM CCP) it was 1.122 ± 0.033. In addition, the “Changes in gene expression of GFAP” value in the assay on GFAP (0.1 µM CCP) amounted to 1.088 ± 0.390; in the assay with GFAP (10 µM CCP) it was 1.175 ± 0.148. For the same molecule, the “Changes in gene expression of NES” value with NES (setting [3]) is 0.948 ± 0.143; with NES (setting [4]) it was 0.992 ± 0.085; with NES (setting [5]), 0.931 ± 0.054. For the same molecule, the “Changes in gene expression of TUBA1A” value in the assay on TUBA1A (setting [3]) was 1.131 ± 0.031; in the assay with TUBA1A (setting [4]) it was 1.098 ± 0.192; in the assay with TUBA1A (setting [5]), 1.429 ± 0.068. Moreover, 9.5 ± 0.9 µM corresponded to half-maximal inhibition in assay [2] (setting [6]) (IC50).
For the molecule `CC[C@H](C)[C@@H]1NC(=O)[C@H](NC(=O)N[C@@H](CCCNC(=N)N)C(=O)O)CCCCNC(=O)[C@H](Cc2ccccc2)NC(=O)[C@H](C)N(C)C(=O)[C@H](CCc2ccc(O)cc2)NC1=O` [anabaenopeptin F] ({Arg-CO}-[dK]I[hTyr][NMeA]F; lactam 1-C), the “metabolic activity vs control” value in assay [1] (NHAs, up to 10 µM, 24 h) is recorded as “no significant changes from the control”. For the same molecule, the “Changes in gene expression of ACTB” value in the assay with ACTB (0.1 µM CCP) was 0.935 ± 0.118; with ACTB (1 µM CCP) it was 1.084 ± 0.138; in the assay with ACTB (10 µM CCP), 1.046 ± 0.130. The figures for the “Changes in gene expression of GFAP” value in the assay with GFAP (0.1 µM CCP), with GFAP (1 µM CCP) and with GFAP (10 µM CCP) were 1.002 ± 0.087, 1.096 ± 0.211 and 1.191 ± 0.435, respectively. The “Changes in gene expression of NES” value in the assay with NES (setting [3]) worked out at 1.040 ± 0.105; in the assay with NES (setting [4]), 1.081 ± 0.056; with NES (setting [5]), 0.886 ± 0.037. For the same molecule, the “Changes in gene expression of TUBA1A” value was 1.016 ± 0.098 in the assay with TUBA1A (setting [3]), 1.023 ± 0.160 in the assay on TUBA1A (setting [4]) and 1.354 ± 0.126 in the assay with TUBA1A (setting [5]). For the same molecule, in assay [2] (setting [6]), the IC50 came to 28.2 ± 3.4 µM.
